Measurements: article PMC6930570, “2-Arylidene-1-indandiones as Pleiotropic Agents with Antioxidant and Inhibitory Enzymes Activities” (Molecules, 2019)

Legend:
bovine thrombin = target: T1, bovine thrombin (Bos taurus, UniProt P00735); test: In vitro inhibition of thrombin; type: biochemical; conditions: substrate tosyl-Gly-Pro-Arg-pNA, no = no action under the experimental conditions; for inhibition at 100 µM: read-out: TH% 100 µM (thrombin inhibition)
T1 construct: purchased Sigma Chemical, Co. (St. Louis)
Protocol: It is well known that indandione derivatives exert their anticoagulant activity indirectly by inhibiting prothrombin synthesis in the liver. […] Derivatives 1, 2, 5, 8, 9, 10, and 12 were tested in vitro as possible thrombin inhibitors. Among the tested derivatives compound 8 presented 100% inhibition followed by compounds […] and 10.
As a substrate tosyl-Gly-Pro-Arg-pNA acetate salt was used at 1 mM final concentration. Compounds were dissolved at a final concentration of […] in a Tris-buffer (0.05 M Tris, 0.154 M NaCl, ethanol 5%, pH = 8.0). Three minutes after the addition of bovine thrombin (2.5 unit/mg), the reaction was ended by adding 1 mL acetic acid 50%. The absorption of the released p-nitro-aniline was measured at 405 nm (Table 3). Warfarin and Inogatran were used as reference compounds.

[1] = Experimental lipophilicity as RM values by RPTLC; type: physicochemical; parameters: key: RM = log[(1/Rf) − 1], from Rf values by RPTLC; conditions: methanol/water 70/30, 24 °C, average of at least 5 measurements
Description: Lipophilicity is a physicochemical parameter indicating the relationship of a drug to its biological activity. It affects ligand-target binding interactions, solubility, ADME (absorption, distribution, bioavailability, metabolism, and elimination) and toxicological effects. RPTLC (reverse phase thin layer chromatography) method was used for the experimental determination, as RM values. The RPTLC method is considered a secure, rapid and appropriate method for expressing the lipophilic character of a compound (Table 1).
Reversed phase TLC (RPTLC) was performed on silica gel plates impregnated with 5% (v/v) liquid paraffin in light petroleum ether. The mobile phase was a methanol/water mixture (70/30, v/v). The plates were developed in closed chromatography tanks saturated with the mobile phase at 24 °C. Spots were detected under UV light. Five individual measurements of Rf values were recorded and used for the determination of RM using the equation RM = log [(1/Rf) − 1] [59, 60, 62] (Table 2).

[2] = Inhibition of linoleic acid peroxidation induced by AAPH; type: biochemical; conditions: no = no action under the experimental conditions
Description: In the water soluble 2,2′-azobis(2-amidinopropane) hydrochloride (AAPH) the free radicals are produced in vitro through spontaneous thermal decomposition resembling to lipid peroxidation in cells due to the action of the peroxyl radicals. […] Compounds 11, 5, 4 and 3 presented no activity under the experimental conditions. From the experimental results it can be concluded that the 3,5-di-tert-butyl-group offers protection against lipid peroxidation. Electronic parameters expressed by the highest occupied molecular orbital (HOMO) describes better the biological activity (Equation (2)). log AAPH % = −22.042(± 8.731) HOMO − 4.853 (2.622)(2) n = 8, r = 0.930, r^2 = 0.864, q^2 = 0.567, s = 0.146, F1,8 = 5.783, α = 0.1
The oxidation reaction was started with 2,2′-Azobis(2-amidinopropane) dihydrochloride (AAPH) as a free radical initiator. Linoleic acid sodium salt was oxidized at 234 nm to a conjugated diene hydroperoxide resulting an increased absorption. Trolox was used as reference compound (93%) (Table 3).

trypsin = test: In vitro inhibition of trypsin induced proteolysis; type: biochemical; conditions: bovine albumin substrate, no = no action under the experimental conditions
Protocol: Serine proteases are implicated in the pathophysiology of inflammatory diseases and trypsin is well known years ago [66]. Trypsin has been associated with host defense reactions and tissue damage. In this study, the novel derivatives have been evaluated towards trypsin and thrombin. Compounds 8 and 9 present high activity.
The Kunitz method was used after modification using bovine albumin was used as substrate for trypsin. In this assay, first 200 μL of 0.075 mg/mL trypsin and 780 μL of phosphate buffer pH 7.6 including the tested compounds (20 μL in DMSO, final concentration 100 μM) were pre-incubated at 37 °C for 20 min and then added 1 mL of albumin (stock solution 6 g/100 mL in phosphate buffer 0.1 M, pH 7.6) and incubated at 37 °C for 30 min. Secondly 1mLof 5% trichloroacetic acid was added to the incubated solution to stop the enzyme’s reaction and allowed to set at room temperature for 1 h. Then the solution was filtered, and the absorption of the filtrate was measured at 280 nm using salicylic acid as a reference compound [61] (Table 3).

[3] = Superoxide anion radical scavenging activity (PMS/NADPH/NBT); type: biochemical; conditions: 100 μM (stated for compound 3)
Protocol: The compounds have been tested to scavenge superoxide anion radicals. However, no results were recorded under the experimental conditions.
The superoxide anion producing system was set up by mixing PMS, NADPH, and air oxygen. The production of superoxide anion was estimated by the nitrobluetetrazole NBT method. The reaction mixture containing compounds, 3 μM PMS, 78 μM NADPH, and 25 μM NBT in […] phosphate buffer pH 7.4 was incubated for 2 min at room temperature and the absorption was measured at 560 nm against a blank containing PMS. The tested compounds were pre-incubated for 2 min before adding NADPH. Caffeic acid was used as an appropriate standard (76%).

SMILES	inhibition at 100 µM (bovine thrombin) [%]	RM (±SD) [1]	AAPH% 100 µM (anti-lipid peroxidation) [2]	Iptr% 100 µM (inhibition of trypsin induced proteolysis) (trypsin)	TH% 100 µM (thrombin inhibition) (bovine thrombin)	superoxide anion scavenging activity [3] [%]
CN(C)c1ccc(/C=C\C=C2C(=O)c3ccccc3C2=O)cc1 [Compound 6, (Z)-2-(3-(4-(dimethylamino)phenyl)allylidene)-1H-indene-1,3(2H)-dione]	19	−0.527 ± 0	9%	29%	–	–
O=C1C(=Cc2c[nH]c3ccccc23)C(=O)c2ccccc21 [Compound 12, (Z)-2-((1H-indol-3-yl)methylene)-1H-indene-1,3(2H)-dione]	–	−0.134 ± 0.02	31%	do not present any activity and no	–	–
CC(C)(C)c1cc(C=C2C(=O)c3ccccc3C2=O)cc(C(C)(C)C)c1O [Compound 10, (Z)-2-(3,5-di-tert-butyl-4-hydroxybenzylidene)-1H-indene-1,3(2H)-dione]	27	−0.103 ± 0	85%	do not present any activity and no	–	–
Cc1ccsc1C=C1C(=O)c2ccccc2C1=O [Compound 2, (Z)-2-((3-methylthiophen-2-yl)methylene)-1H-indene-1,3(2H)-dione]	–	0.031 ± 0	92%	do not present any activity and no	–	–
O=C1C(=Cc2ccccc2)C(=O)c2ccccc21 [Compound 4, 2-benzylidene-1H-indene-1,3(2H)-dione]	–	−0.615 ± 0.02	no activity and no	4%	no	–
O=C1C(=Cc2ccc(OCc3ccc(Br)cc3)cc2)C(=O)c2ccccc21 [Compound 8, (Z)-2-(4-((4-bromobenzyl)oxy)benzylidene)-1H-indene-1,3(2H)-dione]	100	–	79%	85%	–	–
Cc1ccc(C=C2C(=O)c3ccccc3C2=O)o1 [Compound 3, (Z)-2-((5-methylfuran-2-yl)methylene)-1H-indene-1,3(2H)-dione]	39	0.014 ± 0	no activity and no	17%	–	20
CC(C)(C)c1cc(C=C2C(=O)c3ccccc3C2=O)c(O)c(C(C)(C)C)c1 [Compound 9, (Z)-2-(3,5-di-tert-butyl-2-hydroxybenzylidene)-1H-indene-1,3(2H)-dione]	0	−1.038 ± 0	96%	98%	–	–
O=C1C(=Cc2cccc(Oc3ccccc3)c2)C(=O)c2ccccc21 [Compound 7, (Z)-2-(3-phenoxybenzylidene)-1H-indene-1,3(2H)-dione]	–	−0.196 ± 0.02	82%	33%	no	–
